According to patent publication US11638707B2, “Substituted amino triazoles useful as chitinase inhibitors” (Molecure S.A., priority 2019, dated 2023):
Counter-ions that a name gives are not always drawn.

Assays:
hERG channel = hERG channel (Homo sapiens (Human), UniProt Q12809); experiment: Human ERG channel binding assay (fluorescence polarization); settings: Table 1; tracer displacement, 4 h at room temperature
Description: Human ERG Channel Binding Assay
Fluorescence polarization assay based on the principle of fluorescence polarization where a red-shifted fluorescent tracer is displaced from the hERG channel by compounds that bind to the channel was used to establish the binding of the compounds to hERG channel. […] Briefly, the compounds in serial dilutions were incubated with a membrane fraction containing hERG channel protein and a high-affinity red fluorescent hERG channel ligand in black 384-well plate. […] The IC50 values were calculated using GraphPad Prism.

recombinant human CHIT1 = recombinant human CHIT1 (Homo sapiens (Human), UniProt Q13231); experiment: Human CHIT1 activity assay; assay type: biochemical; settings: recombinant human CHIT1, citrate buffer pH 5.2, 37° C., 60 minutes; read-out: hCHIT1, IC50
Chain of recombinant human CHIT1 (Q13231 22-466): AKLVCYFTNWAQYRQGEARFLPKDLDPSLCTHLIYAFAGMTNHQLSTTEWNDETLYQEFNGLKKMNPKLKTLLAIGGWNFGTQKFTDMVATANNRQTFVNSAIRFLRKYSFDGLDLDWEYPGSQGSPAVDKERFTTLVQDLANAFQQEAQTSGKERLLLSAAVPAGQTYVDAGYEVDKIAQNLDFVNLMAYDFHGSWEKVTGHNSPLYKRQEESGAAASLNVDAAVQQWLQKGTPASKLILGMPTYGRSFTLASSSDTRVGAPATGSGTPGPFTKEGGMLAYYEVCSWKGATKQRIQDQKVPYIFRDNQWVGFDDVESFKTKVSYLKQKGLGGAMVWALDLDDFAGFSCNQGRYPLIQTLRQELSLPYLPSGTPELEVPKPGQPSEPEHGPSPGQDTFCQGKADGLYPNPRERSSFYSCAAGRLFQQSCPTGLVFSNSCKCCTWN
Description: (§1) The assay was run in the 96-well plate format, each reaction in the total volume of 100 μL. 4-methylumbelliferyl β-D-N,N′,N″-triacetylchitotriose was used as a substrate for the enzyme. Upon hydrolysis by CHIT1, the substrate releases 4-methylumbelliferyl (4MU) that, when ionized in basic pH, emits fluorescence at 460 nm. Briefly, 40 μL of a substrate was added to each well, followed by 10 μL of compound dilution and 50 μL of CHIT1 recombinant enzyme solution. The reaction was carried out in citrate buffer, pH 5.2, in the dark, at 37° C. for 60 minutes with shaking. […] The IC50 values were calculated using GraphPad Prism.

recombinant human AMCase = recombinant human AMCase (Homo sapiens (Human), UniProt Q9BZP6); experiment: Human AMCase activity assay; assay type: biochemical; settings: citrate buffer pH 5.2, 37° C., 60 minutes, read-out: hAMCase, IC50
Chain of recombinant human AMCase (Q9BZP6 22-476): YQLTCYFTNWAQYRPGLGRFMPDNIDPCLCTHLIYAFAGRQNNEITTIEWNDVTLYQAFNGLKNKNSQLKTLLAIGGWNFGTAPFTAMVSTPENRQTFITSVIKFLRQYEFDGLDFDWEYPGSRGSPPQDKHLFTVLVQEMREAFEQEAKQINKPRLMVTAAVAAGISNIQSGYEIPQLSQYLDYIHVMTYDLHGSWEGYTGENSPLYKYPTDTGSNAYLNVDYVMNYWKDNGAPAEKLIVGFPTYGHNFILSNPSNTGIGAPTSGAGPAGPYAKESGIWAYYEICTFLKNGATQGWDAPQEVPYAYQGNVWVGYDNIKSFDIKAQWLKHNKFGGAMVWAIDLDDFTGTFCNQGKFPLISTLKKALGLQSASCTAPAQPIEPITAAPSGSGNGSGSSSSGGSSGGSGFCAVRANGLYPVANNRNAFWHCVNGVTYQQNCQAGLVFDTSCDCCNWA
Description: as §1, with “4-Methylumbelliferyl B-D-N,N′-diacetylchitobioside hydrate” for “4-methylumbelliferyl β-D-N,N′,N″-triacetylchitotriose”, “AMCase,” for “CHIT1,”, “hAMCase” for “CHIT1”

Chain of hERG channel (Q12809 whole entry): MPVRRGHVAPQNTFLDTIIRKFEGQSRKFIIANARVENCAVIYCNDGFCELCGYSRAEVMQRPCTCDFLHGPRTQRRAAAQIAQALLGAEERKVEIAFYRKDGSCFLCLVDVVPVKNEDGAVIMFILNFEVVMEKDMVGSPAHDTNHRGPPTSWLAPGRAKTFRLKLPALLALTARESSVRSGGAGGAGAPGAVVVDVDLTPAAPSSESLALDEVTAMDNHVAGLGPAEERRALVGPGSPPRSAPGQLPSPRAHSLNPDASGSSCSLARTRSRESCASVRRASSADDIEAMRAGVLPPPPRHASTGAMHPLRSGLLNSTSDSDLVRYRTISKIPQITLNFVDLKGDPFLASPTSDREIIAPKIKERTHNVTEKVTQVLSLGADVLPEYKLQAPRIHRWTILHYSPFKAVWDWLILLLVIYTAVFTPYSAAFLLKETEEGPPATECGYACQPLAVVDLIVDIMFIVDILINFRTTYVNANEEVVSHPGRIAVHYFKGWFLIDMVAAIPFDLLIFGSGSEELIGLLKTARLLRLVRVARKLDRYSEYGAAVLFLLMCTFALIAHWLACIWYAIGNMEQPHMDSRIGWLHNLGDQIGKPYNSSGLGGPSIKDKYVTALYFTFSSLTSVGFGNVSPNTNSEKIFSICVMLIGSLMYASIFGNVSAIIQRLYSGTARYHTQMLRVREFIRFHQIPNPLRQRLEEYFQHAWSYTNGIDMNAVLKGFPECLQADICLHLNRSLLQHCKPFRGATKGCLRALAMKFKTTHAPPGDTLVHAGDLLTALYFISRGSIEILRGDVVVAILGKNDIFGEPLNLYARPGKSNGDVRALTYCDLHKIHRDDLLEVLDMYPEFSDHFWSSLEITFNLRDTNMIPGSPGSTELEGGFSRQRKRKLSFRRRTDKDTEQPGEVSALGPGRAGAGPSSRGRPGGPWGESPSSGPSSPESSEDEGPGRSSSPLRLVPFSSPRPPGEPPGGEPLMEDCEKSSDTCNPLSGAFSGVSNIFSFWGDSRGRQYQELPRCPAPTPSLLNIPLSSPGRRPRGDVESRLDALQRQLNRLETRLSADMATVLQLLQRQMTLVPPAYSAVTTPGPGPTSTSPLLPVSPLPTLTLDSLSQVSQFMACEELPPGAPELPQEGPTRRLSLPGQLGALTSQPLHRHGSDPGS

Compound | IC50 (recombinant human CHIT1) [µM] | IC50 (recombinant human AMCase) [µM] | IC50 (hERG channel) [µM]
N#CC[C@H]1CN(C2CCN(c3nnc(N)[nH]3)CC2)[C@@H](Cc2ccc(Cl)cc2)CO1 [Example 6, 2-((2S,5S)-4-(1-(5-amino-4H-1,2,4-triazol-3-yl)piperidin-4-yl)-5-(4-chlorobenzyl)-morpholin-2-yl)acetonitrile 2,2,2-trifluoroacetate] | < 0.1 | < 0.1 | > 100
Nc1nnc(N2CCC(N3C[C@H](CF)OC[C@@H]3Cc3ccc(Br)cc3)CC2)[nH]1 [Example 76, 5-(4-((2R,5S)-5-(4-bromobenzyl)-2-(fluoromethyl)morpholino)piperidin-1-yl)-4H-1,2,4-triazol-3-amine 2,2,2-trifluoroacetate] | < 0.1 | < 0.1 | > 100
Nc1nnc(N2CCC(N3C[C@H](C(=O)NCC(F)(F)F)OC[C@@H]3Cc3ccc(Cl)cc3)CC2)[nH]1 [Example 26, (2R,5S)-4-(1-(5-amino-4H-1,2,4-triazol-3-yl)piperidin-4-yl)-5-(4-chlorobenzyl)-N-(2,2,2-trifluoroethyl)morpholine-2-carboxamide 2,2,2-trifluoroacetate] | 0.1 to 1 | < 0.1 | > 100
Nc1nnc(N2CCC(N3C[C@H](CN4CCC(F)(F)C4)OC[C@@H]3Cc3ccc(Cl)cc3)CC2)[nH]1 [Example 29, 5-(4-((2S,5S)-5-(4-chlorobenzyl)-2-((3,3-difluoropyrrolidin-1-yl)methyl)-morpholino)piperidin-1-yl)-4H-1,2,4-triazol-3-amine 2,2,2-trifluoroacetate] | < 0.1 | < 0.1 | > 100
Nc1nnc(N2CCC(N3C[C@H](C(=O)N4CCCC4)OC[C@@H]3Cc3ccc(Cl)cc3)CC2)[nH]1 [Example 60, ((2R,5S)-4-(1-(5-amino-4H-1,2,4-triazol-3-yl)piperidin-4-yl)-5-(4-chlorobenzyl)-morpholin-2-yl)(pyrrolidin-1-yl)methanone 2,2,2-trifluoroacetate] | 0.1 to 1 | < 0.1 | > 100
CC(C)CNC(=O)[C@H]1CN(C2CCN(c3nnc(N)[nH]3)CC2)[C@@H](Cc2ccc(Cl)cc2)CO1 [Example 69, (2R,5S)-4-(1-(5-amino-4H-1,2,4-triazol-3-yl)piperidin-4-yl)-5-(4-chlorobenzyl)-N-isobutylmorpholine-2-carboxamide 2,2,2-trifluoroacetate] | < 0.1 | < 0.1 | 25 to 100
Nc1nnc(N2CCC(N3C[C@@H]4COCCN4C[C@@H]3Cc3ccc(Cl)cc3)CC2)[nH]1 [Example 73, 5-(4-((7S,9aR)-7-(4-chlorobenzyl)hexahydropyrazino[2,1-c][1,4]oxazin-8(1H)-yl)piperidin-1-yl)-4H-1,2,4-triazol-3-amine hydrochloride] | 0.1 to 1 | < 0.1 | 1 to 10
N#Cc1cnn(C[C@H]2CN(C3CCN(c4nnc(N)[nH]4)CC3)[C@@H](Cc3ccc(Cl)cc3)CO2)c1 [Example 8, 1-(((2R,5S)-4-(1-(5-amino-4H-1,2,4-triazol-3-yl)piperidin-4-yl)-5-(4-chlorobenzyl)-morpholin-2-yl)methyl)-1H-pyrazole-4-carbonitrile 2,2,2-trifluoroacetate] | < 0.1 | < 0.1 | 25 to 100
Nc1nnc(N2CCC(N3C[C@@H]4CC(F)(F)CN4C[C@@H]3Cc3ccc(C(F)(F)F)cc3)CC2)[nH]1 [Example 78, 5-(4-((3S,8aS)-7,7-difluoro-3-(4-(trifluoromethyl)benzyl)hexahydropyrrolo[1,2-a]pyrazin-2(1H)-yl)piperidin-1-yl)-4H-1,2,4-triazol-3-amine 2,2,2-trifluoroacetate] | < 0.1 | < 0.1 | 10 to 25
C[C@H]1CN(C2CCN(c3nnc(N)[nH]3)CC2)[C@@H](Cc2ccc(Br)cc2)CO1 [Example 75, 5-(4-((2S,5S)-5-(4-bromobenzyl)-2-methylmorpholino)piperidin-1-yl)-4H-1,2,4-triazol-3-amine 2,2,2-trifluoroacetate] | < 0.1 | < 0.1 | 1 to 10
CC1CN(C[C@H]2CN(C3CCN(c4nnc(N)[nH]4)CC3)[C@@H](Cc3ccc(Cl)cc3)CO2)C1 [Example 51, 5-(4-((2S,5S)-5-(4-chlorobenzyl)-2-((3-methylazetidin-1-yl)methyl)morpholino)-piperidin-1-yl)-4H-1,2,4-triazol-3-amine 2,2,2-trifluoroacetate] | 0.1 to 1 | < 0.1 | 25 to 100
CC(C)(C)NC(=O)[C@H]1CN(C2CCN(c3nnc(N)[nH]3)CC2)[C@@H](Cc2ccc(Cl)cc2)CO1 [Example 66, (2R,5S)-4-(1-(5-amino-4H-1,2,4-triazol-3-yl)piperidin-4-yl)-N-(tert-butyl)-5-(4-chlorobenzyl)morpholine-2-carboxamide 2,2,2-trifluoroacetate] | 0.1 to 1 | < 0.1 | > 100

Continued, in another order:

IC50 (recombinant human CHIT1) [µM] | IC50 (recombinant human AMCase) [µM] | Compound | IC50 (hERG channel) [µM]
< 0.1 | < 0.1 | Nc1nnc(N2CCC(N3CC(F)(F)CC[C@@H]3Cc3ccc(Cl)cc3)CC2)[nH]1 [Example 57, (R)-5-(2-(4-chlorobenzyl)-5,5-difluoro-[1,4′-bipiperidin]-1′-yl)-4H-1,2,4-triazol-3-amine 2,2,2-trifluoroacetate] | > 100
< 0.1 | < 0.1 | CC1CN(C(=O)[C@H]2CN(C3CCN(c4nnc(N)[nH]4)CC3)[C@@H](Cc3ccc(Cl)cc3)CO2)C1 [Example 61, ((2R,5S)-4-(1-(5-amino-4H-1,2,4-triazol-3-yl)piperidin-4-yl)-5-(4-chlorobenzyl)-morpholin-2-yl)(3-methylazetidin-1-yl)methanone 2,2,2-trifluoroacetate] | > 100
0.1 to 1 | < 0.1 | Nc1nnc(N2CCC(N3C[C@H](CN4CCCCC4)OC[C@@H]3Cc3ccc(Cl)cc3)CC2)[nH]1 [Example 52, 5-(4-((2S,5S)-5-(4-chlorobenzyl)-2-(piperidin-1-ylmethyl)morpholino)piperidin-1-yl)-4H-1,2,4-triazol-3-amine 2,2,2-trifluoroacetate] | 25 to 100
< 0.1 | < 0.1 | Nc1nnc(N2CCC(N3C[C@H](CN4CC(F)C4)OC[C@@H]3Cc3ccc(Cl)cc3)CC2)[nH]1 [Example 37, 5-(4-((2S,5S)-5-(4-chlorobenzyl)-2-((3-fluoroazetidin-1-yl)methyl)morpholino)-piperidin-1-yl)-4H-1,2,4-triazol-3-amine 2,2,2-trifluoroacetate] | 25 to 100
< 0.1 | < 0.1 | Cc1cc([C@H]2CN(C3CCN(c4nnc(N)[nH]4)CC3)[C@@H](Cc3ccc(Cl)cc3)CO2)[nH]n1 [Example 34, 5-(4-((2R,5S)-5-(4-chlorobenzyl)-2-(3-methyl-1H-pyrazol-5-yl)morpholino)-piperidin-1-yl)-4H-1,2,4-triazol-3-amine 2,2,2-trifluoroacetate] | 25 to 100
< 0.1 | < 0.1 | Cc1coc([C@H]2CN(C3CCN(c4nnc(N)[nH]4)CC3)[C@@H](Cc3ccc(Cl)cc3)CO2)n1 [Example 49, 5-(4-((2R,5S)-5-(4-chlorobenzyl)-2-(4-methyloxazol-2-yl)morpholino)piperidin-1-yl)-4H-1,2,4-triazol-3-amine 2,2,2-trifluoroacetate] | 10 to 25
< 0.1 | < 0.1 | Nc1nnc(N2CCC(N3C[C@H](N4CCOCC4)C[C@@H]3Cc3ccc(Cl)cc3)CC2)[nH]1 [Example 55, 5-(4-((2S,4R)-2-(4-chlorobenzyl)-4-morpholinopyrrolidin-1-yl)piperidin-1-yl)-4H-1,2,4-triazol-3-amine 2,2,2-trifluoroacetate] | 25 to 100
0.1 to 1 | < 0.1 | Nc1nnc(N2CCC(N3C[C@H](C(=O)N4CCOCC4)OC[C@@H]3Cc3ccc(Cl)cc3)CC2)[nH]1 [Example 63, ((2R,5S)-4-(1-(5-amino-4H-1,2,4-triazol-3-yl)piperidin-4-yl)-5-(4-chlorobenzyl)-morpholin-2-yl)(morpholino)methanone 2,2,2-trifluoroacetate] | > 100
< 0.1 | < 0.1 | Nc1nnc(N2CCC(N3C[C@H](Cn4ccnc4)OC[C@@H]3Cc3ccc(Cl)cc3)CC2)[nH]1 [Example 47, 5-(4-((2R,5S)-2-((1H-imidazol-1-yl)methyl)-5-(4-chlorobenzyl)morpholino)-piperidin-1-yl)-4H-1,2,4-triazol-3-amine 2,2,2-trifluoroacetate] | 10 to 25
